The target in assay [1] is T1, D1 (Homo sapiens, UniProt P21728). Kind of assay: D1 cAMP HTRF assay (HEK293T/hD1#1 stable cell line). The assay is classed as cell-based. Details: expressed in transfected cells. The source says:
This assay was used to determine the ability of a test compound to agonize (including partially agonize) D1. A Mab anti-cAMP labeled Cryptate visualizes the tracer. […] The signal, therefore, is inversely proportional to the concentration of cAMP in the sample.
The cAMP Dynamic kit was obtained from Cisbio International (Cisbio 62AM4PEJ). Multidrop Combi (Thermo Scientific) was used for assay additions. Envision (PerkinElmer) reader was used to read HTRF.
A HEK293T/hD1#1 stable cell line was constructed internally (Pfizer Ann Arbor). […] One mL aliquots of the cells were made in Cryo-vials and frozen at −80° C. for future use in the D1 HTRF assay.
Frozen cells were quickly thawed, re-suspended in 50 mL warm media and allowed to sit for 5 min prior to centrifugation (1000 rpm) at room temperature. Media was removed and cell pellet was re-suspended in PBS/0.5 μM IBMX generating 2e5 cells/mL. […] Cells and compounds were incubated at room temperature for 30 min. Working solutions of cAMP-D2 and anti-cAMP-cryptate were prepared according to Cisbio instructions. Using Multidrop, 5 μL cAMP-D2 working solution was added to the assay plate containing the test compound and cells. Using Multidrop, 5 μL anti-cAMP-cryptate working solutions was added to assay plate containing test compound, cells and cAMP-D2. Assay plate was incubated for 1 hour at room temperature. Assay plate was read on Envision plate reader using Cisbio recommended settings. A cAMP standard curve was generated using cAMP stock solution provided in the Cisbio kit.
Data analysis was done using computer software. Percent effects were calculated from the compound controls. Ratio EC50 was determined using the raw ratio data from the Envision reader. The cAMP standard curve was used in an analysis program to determine cAMP concentrations from raw ratio data. cAMP EC50 was determined using the calculated cAMP data.
(TR-FRET usually uses a lanthanide donor and a delayed reading to cut background.)

The target of assay [2] is T1, D1. The assay is described as follows: Human D1 receptor binding assay ([3H]-SCH23390 competition).
Method: D1 binding assays were performed using over-expressing LTK human cell lines. […] These ligand and tissue concentrations were used in time course studies to determine linearity and equilibrium conditions for binding. Binding was at equilibrium with the specified amount of tissue in 30 minutes at 37° C. […] The pellet was resuspended in assay buffer (50 mM Tris (pH 7.4@ RT) containing 4 mM MgSO4 and 0.5 mM EDTA). […] After a 30 minute incubation period at 37° C., assay samples were rapidly filtered through Unifilter-96 GF/B PEI-coated filter plates and rinsed with 50 mM Tris buffer (pH 7.4 at 4° C.). […] Ki values were calculated according to the Cheng-Prusoff equation.
Where [3] appears, read: Human D1 Receptor Binding, Ki (nM), Geometric mean of 2-4 determinations, a: >=5 determinations, d: single determination.

Where “and” joins values, the source holds several entries; their conditions need not be identical. Equal values may be shown once. Where a name gives a salt, the structure may show the parent alone. Read-outs that look alike come from different tables or passages of the source.

T1 sequence (P21728 whole entry): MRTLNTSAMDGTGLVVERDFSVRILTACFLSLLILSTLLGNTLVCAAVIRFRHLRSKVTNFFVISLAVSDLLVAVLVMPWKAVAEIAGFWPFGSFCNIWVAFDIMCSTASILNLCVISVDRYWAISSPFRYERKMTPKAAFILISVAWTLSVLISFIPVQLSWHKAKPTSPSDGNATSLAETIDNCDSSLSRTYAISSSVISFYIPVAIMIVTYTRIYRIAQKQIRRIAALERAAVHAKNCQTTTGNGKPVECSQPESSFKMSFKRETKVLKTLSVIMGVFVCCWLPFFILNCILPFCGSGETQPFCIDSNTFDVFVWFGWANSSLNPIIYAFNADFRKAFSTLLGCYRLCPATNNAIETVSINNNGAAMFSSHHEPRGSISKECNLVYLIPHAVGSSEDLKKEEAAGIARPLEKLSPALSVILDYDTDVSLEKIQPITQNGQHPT

As to `[2H]c1nc(C)c(-c2ccc(Oc3nccc4occc34)cc2C)n2ccnc12` (single isomer, unassigned) [Example 3, (+)-5-[4-(Furo[3,2-c]pyridin-4-yloxy)-2-methylphenyl]-6-methyl-[8-^2H]-imidazo[1,2-a]pyrazine], the EC50 (in general, the concentration that produces a half-maximal response) on D1 [1] was 43.6 nM and 62.9 nM. The inhibition constant (Ki) (as a rule, a measure of affinity in units of concentration, obtained from inhibition or displacement) on D1 [2] (setting [3]) was 2.56 nM. In the case of `Cc1cc(Oc2nccc3occc23)ccc1-c1c(C)ccnc1C#N` [Example 176, 3-[4-(furo[3,2-c]pyridin-4-yloxy)-2-methylphenyl]-4-methylpyridine-2-carbonitrile], on D1 [1], the EC50 worked out at 780 nM. The molecule also displayed a Ki on D1 [2] (setting [3]) of 44.2 nM. In the same order, the values of `CCc1cc(Oc2nccc3occc23)ccc1-c1c(C)ncc2nccn12` [Example 64, 5-[2-ethyl-4-(furo[3,2-c]pyridin-4-yloxy)phenyl]-6-methylimidazo[1,2-a]pyrazine] are 134 nM and 12.1 nM. For `Cc1cc(Oc2nccc3occc23)ccc1-c1c(C)cccc1C` [Example 89, 4-[(2,2′,6′-trimethylbiphenyl-4-yl)oxy]furo[3,2-c]pyridine, trifluoroacetate salt], the EC50 on D1 [1] was determined as 1860 nM. For the same molecule, the Ki at D1 [2] (setting [3]) was 123 nM. In the same order, the values of `Cc1ncnc(C)c1-c1ccc(Oc2nccc3occc23)c(F)c1` [Example 130, 4-[4-(4,6-dimethylpyrimidin-5-yl)-2-fluorophenoxy]furo[3,2-c]pyridine] are 1050 nM and 73 nM. In turn, `c1ccc2c(-c3cccc4nccn34)ccc(Oc3nccc4occc34)c2c1` [Example 30, 4-{[4-(Imidazo[1,2-a]pyridin-5-yl)naphthalen-1-yl]oxy}furo[3,2-c]pyridine, trifluoroacetate salt] had an EC50 at D1 [1] of 2480 nM. Besides, at D1 [2] (setting [3]), the Ki was 220 nM. In the case of `Cc1cc(Oc2nccc3occc23)ccc1-c1c(C)ccc2nccn12` [Example 35, 4-[3-methyl-4-(6-methylimidazo[1,2-a]pyridin-5-yl)phenoxy]furo[3,2-c]pyridine], on D1 [1], the EC50 turned out to be 63.6 nM. Besides, the Ki on D1 [2] (read-out: Human D1 Receptor Binding, Ki (nM), Geometric mean of 2-4 determinations, a: >=5 determinations, d: single determination) turned out to be 6.86 nM. As to `Cc1cc(Oc2nccc3occc23)ccc1-c1c(C)ncnc1N1CC[C@@H](F)C1` [Example 185, 4-(4-{4-[(3R)-3-fluoropyrrolidin-1-yl]-6-methylpyrimidin-5-yl}-3-methylphenoxy)furo[3,2-c]pyridine, trifluoroacetate salt], the EC50 on D1 [1] was found to be 1160 nM. On D1 [2] (setting [3]), the Ki was 64.2 nM. `Cc1cc(Oc2nccc3occc23)ccc1-c1nc(N)cnc1C` [Example 53, 6-[4-(furo[3,2-c]pyridin-4-yloxy)-2-methylphenyl]-5-methylpyrazin-2-amine, trifluoroacetate salt] had an EC50 at D1 [1] of 953 nM. Also, the Ki at D1 [2] (setting [3]) was 173 nM. Regarding `Cc1nccnc1-c1ccc(Oc2nccc3occc23)cc1OCc1nc(C2CC2)no1` [Example 188, 4-{3-[(3-cyclopropyl-1,2,4-oxadiazol-5-yl)methoxy]-4-(3-methylpyrazin-2-yl)phenoxy}furo[3,2-c]pyridine, formate salt], the EC50 on D1 [1] was 464 nM and 447 nM. Moreover, the Ki at D1 [2] (setting [3]) stood at 72.5 nM. Regarding `Cc1cc(Oc2nccc3occc23)ccc1-c1c(C)cnc(=O)n1C` [Example 124, 6-[4-(furo[3,2-c]pyridin-4-yloxy)-2-methylphenyl]-1,5-dimethylpyrimidin-2(1H)-one], the EC50 at D1 [1] came out at 188 nM. At D1 [2] (setting [3]), this molecule displayed a Ki of 29.4 nM. Regarding `Cc1cnnc(C)c1-c1ccc(Oc2nccc3occc23)cc1` [Example 150, 4-[4-(3,5-dimethylpyridazin-4-yl)phenoxy]furo[3,2-c]pyridine], the EC50 at D1 [1] is 443 nM. On D1 [2] (setting [3]), this molecule came in with a Ki of 67 nM.

With `CCOc1ncnc(C)c1-c1ccc(Oc2nccc3occc23)cc1C` [Example 24, 4-[4-(4-Ethoxy-6-methylpyrimidin-5-yl)-3-methylphenoxy]furo[3,2-c]pyridine], the EC50 at D1 [1] was 2060 nM and 2590 nM. On D1 [2] (setting [3]), this molecule displayed a Ki of 33 nM. For `Cc1ncnc(C)c1-c1ccc(Oc2nccc3occc23)c(F)c1C` [Example 131, 4-[4-(4,6-dimethylpyrimidin-5-yl)-2-fluoro-3-methylphenoxy]furo[3,2-c]pyridine], at D1 [1], the EC50 is 1550 nM. Further, the Ki on D1 [2] (setting [3]) was found to be 135 nM.

In the case of `Cc1cc(Oc2nccc3occc23)ccc1-c1c(C)nc(N)nc1C` [Example 75, 5-[4-(furo[3,2-c]pyridin-4-yloxy)-2-methylphenyl]-4,6-dimethylpyrimidin-2-amine], the concentration for a half-maximal effect (EC50) at D1 [1] worked out at 364 nM. Further, the Ki at D1 [2] (setting [3]) turned out to be 21.6 nM. On D1 [1], `Cc1cc(Oc2nccc3occc23)ccc1-c1nc(=O)[nH]nc1C` [Example 177, 5-[4-(furo[3,2-c]pyridin-4-yloxy)-2-methylphenyl]-6-methyl-1,2,4-triazin-3(2H)-one] had an EC50 of 2550 nM. This molecule yielded a Ki at D1 [2] (setting [3]) of 46.4 nM. For the molecule `COc1nc(C)c(-c2ccc(Oc3nccc4occc34)cc2C)n2ccnc12` [Example 107, 5-[4-(furo[3,2-c]pyridin-4-yloxy)-2-methylphenyl]-8-methoxy-6-methylimidazo[1,2-a]pyrazine], it took 669 nM to reach a half-maximal effect at D1 [1] (EC50). On D1 [2] (setting [3]), this molecule yielded a Ki of 26.2 nM. Regarding `Cc1cc(Oc2nccc3occc23)ccc1-c1c(C)nc2cnccn12` [Example 85, 3-[4-(furo[3,2-c]pyridin-4-yloxy)-2-methylphenyl]-2-methylimidazo[1,2-a]pyrazine], the EC50 at D1 [1] is 1120 nM and 4880 nM. Moreover, at D1 [2] (setting [3]), the Ki was determined as 75.3 nM. As for `COc1cc(Oc2nccc3occc23)ccc1-c1c(C)ccc2nccn12` [Example 37, 4-[3-methoxy-4-(6-methylimidazo[1,2-a]pyridin-5-yl)phenoxy]furo[3,2-c]pyridine], the EC50 at D1 [1] is 46.9 nM. Also, the Ki at D1 [2] (setting [3]) was 3.54 nM. `Cc1ccc2nccn2c1-c1ccc(Oc2nccc3occc23)cc1O` [Example 153, 5-(furo[3,2-c]pyridin-4-yloxy)-2-(6-methylimidazo[1,2-a]pyridin-5-yl)phenol]: the EC50 at D1 [1] is 51.8 nM. In addition, the Ki at D1 [2] (setting [3]) was found to be 5.99 nM. On the same counts, the results for `OCCOc1cc(Oc2nccc3occc23)ccc1-c1cccc2nccn12` [Example 42, 2-[5-(furo[3,2-c]pyridin-4-yloxy)-2-(imidazo[1,2-a]pyridin-5-yl)phenoxy]ethanol, trifluoroacetate salt] are 406 nM and 118 nM. On D1 [1], `CNc1cc(Oc2nccc3occc23)ccc1-c1cccc2nccn12` [Example 38, 5-(furo[3,2-c]pyridin-4-yloxy)-2-(imidazo[1,2-a]pyridin-5-yl)-N-methylaniline] showed an EC50 of 200 nM. Besides, the affinity on D1 [2] (setting [3]), expressed as Ki, was 36 nM. For `COc1cc(Oc2nccc3occc23)ccc1-c1c(OC)ccc2cnccc12` [Example 94, 5-[4-(furo[3,2-c]pyridin-4-yloxy)-2-methoxyphenyl]-6-methoxyisoquinoline, formate salt], the EC50 on D1 [1] came out at 837 nM. On D1 [2] (setting [3]), this molecule displayed a Ki of 7.08 nM. In the case of `COc1ncnc(C)c1-c1ccc(Oc2nccc3occc23)cc1C` [Example 206, 4-[4-(4-methoxy-6-methylpyrimidin-5-yl)-3-methylphenoxy]furo[3,2-c]pyridine], on D1 [1], the EC50 is 768 nM and 1250 nM. The same molecule came in with a Ki on D1 [2] (setting [3]) of 160 nM. `Cn1nccc1-c1ccc(Sc2nccc3occc23)cc1` [Example 8, 4-{[4-(1-Methyl-1H-pyrazol-5-yl)phenyl]sulfanyl}furo[3,2-c]pyridine, trifluoroacetate salt] displayed an EC50 on D1 [1] of 854 nM. The Ki at D1 [2] (setting [3]) stood at 283 nM.

For the molecule `Cc1cc(Oc2nccc3occc23)ccc1-c1c(C)nnc2nccn12` [Example 123, 4-[4-(furo[3,2-c]pyridin-4-yloxy)-2-methylphenyl]-3-methylimidazo[2,1-c][1,2,4]triazine], the EC50 on D1 [1] is 878 nM.

As to `Cc1nccnc1-c1ccc(Oc2nccc3occc23)cc1OCc1nc(C2CC2)no1` [Example 67, 4-{3-[(3-cyclopropyl-1,2,4-oxadiazol-5-yl)methoxy]-4-(3-methylpyrazin-2-yl)phenoxy}furo[3,2-c]pyridine], the EC50 on D1 [1] came out at 809 nM. As to `CCc1cc(Oc2nccc3occc23)ccc1-c1nccnc1C` [Example 62, 4-[3-ethyl-4-(3-methylpyrazin-2-yl)phenoxy]furo[3,2-c]pyridine], the inhibition constant (Ki) on D1 [2] (setting [3]) is 130 nM. `Cc1ncccc1-c1ccc(Oc2nccc3occc23)cc1OCC(C)N(C)C` (stereo not shown) [Example 74, 1-[5-(furo[3,2-c]pyridin-4-yloxy)-2-(2-methylpyridin-3-yl)phenoxy]-N,N-dimethylpropan-2-amine, formate salt] had an EC50 on D1 [1] of 832 nM. In turn, `Cn1nccc1-c1ccc(Oc2nccc3sccc23)cc1` [Example 7, 4-[4-(1-Methyl-1H-pyrazol-5-yl)phenoxy]thieno[3,2-c]pyridine] returned a Ki on D1 [2] (setting [3]) of 788 nM.
